According to patent US20240368605A1, “USE OF SPLICE SWITCHING OLIGONUCLEOTIDES FOR EXON SKIPPING-MEDIATED KNOCKDOWN OF PIM2” (INSTITUT NATIONAL DE LA SANTÉ ET DE LA RECHERCHE MÉDICALE, priority 2021, published 2024):

Legend:
Type in all cases: cell-based, human
PIM1 = PIM1 expression after SSO-PIM2 treatment; settings: 2 μM
PIM2 = PIM2 expression in in vitro differentiated activated B cells / plasmablasts after SSO treatment (mRNA, PCR, western blot, immunofluorescence)
Procedure: FIG. 1. Specific PIM2 inhibition affects the generation of plasmablasts • A. Diagram explaining SSO-PIM2 action. It binds to the second exon of the gene PIM2 leading in a skip of this exon during transcription and finally results to a frame shift and created an early stop-codon during translation. The protein is so a non-functional truncated protein. • B. Activated B cells were treated at D4 with an increasing dose of SSO-PIM2 and SSO-CTL (control condition) and recovered 48 hours later (at D6). PIM2 mRNA residual expression compared to the control condition adjust at 100% (mean±SD, n=3) and agarose gel of PIM2 PCR, showing exon skipping. • C. At D4, activated B cells were treated with SSO-PIM2 and SSO-CTL (control condition) at 2 μM. CD23+ aBC and PB were sorted at D6. PIM2 mRNA relative expression (mean±SD, n=4) (left) and PIM2 protein expression by western blot (middle) and immunofluorescence (right) after PIM2 inhibition. • D-E. Decrease of PB generation after PIM2 inhibition. Cells were treated with SSO-PIM2 at 2 μM (D) or increase dose of the PIM inhibitor AZD1208 (PIMi as indicated, in μM) (E) and their control condition (SSO-CTL and DMSO respectively). The untreated condition is referred as “NT” (=no treatment). Left: Absolute number of PB obtained at D6 after PIM2 inhibition. Data are representative with bars at mean±SD, n=6. Right: Proportion of PB evaluated at D6 by flow cytometry after treatment with SSO-PIM2 at 2 μM. Data are representative of six independent experiments. • F. Transcription factors (IRF4, PRDM1, XBPIS, BACH2, BCL6, SPIB, IRF8 and PAX5) mRNA relative expression after specific PIM2 inhibition. Data are representative with bars at mean±SD, n=4.
To identify genes whose transcription was acutely regulated during the final commitment step we developed our previously described in vitro differentiation model system on human naive B cells (NBCs) giving at day-6 (D6) four cell populations that were explored transcriptionally (data not shown) (Caron et al., 2015; Le Gallou et al., 2012; Pignarre et al., 2021). […]

PBs = test: Mitochondria/Caspase 3-driven apoptosis and viability of PBs; settings: PBs
Excerpt: Mitochondrial-driven cell death is activated once the mitochondria lose the ability to maintain the inner membrane potential, resulting in the release of proapoptotic proteins into the cytosol. Commitment towards PBs is sustained by an extensive reconfiguration of the epigenetic landscape and of gene expression patterns, both showing that the most prominent function involves cell death and survival (Caron et al., 2015). […] We then investigated the different cell subsets generated through the differentiation model at the protein level for factors involved in apoptosis triggered by mitochondria (data not shown). The PBs compared to all other subsets increased the expression of pBAD and XIAP, both proteins counteract the apoptotic pathway and were described in PIM2-induced survival effect (data not shown) (Fox, 2003; Macdonald et al., 2006; Yan et al., 2003). In accordance with this finding and despite a strong increase in procaspase 3 protein (32 kDa size), PBs decrease the autocatalytic activity of Caspase 3 and therefore the production of p19/p17 apoptosis executors as highlighted by the low levels of cleaved PARP (data not shown) (Ponder and Boise, 2019). […] In addition, we found in P2/CD23+ cells a complete degradation of PARP which illustrate the fact that the apoptosis process is consubstantially associated with the B cell terminal differentiation if cells are not otherwise protected (data not shown).
We then inhibited PIM2 which led to an intense activation of Caspase 3 and a decrease of viability of PBs. The latter was rescued by the Caspase 3 inhibitor Q-DEVD-OPH (data not shown).
The differentiation of immature monocytes is associated with a relocalization of nuclear p21^Cip1/WAF1 to the cytoplasm where the protein participates to apoptosis blockage (Asada, 1999). In addition, Suzuki et al. ascribed the formation of a Procaspase 3/p21^Cip1/WAF1 complex in the context of resistance to Fas-mediated cell death owing to the phosphorylation of p21 by protein kinase A (Suzuki et al., 2000). We wanted therefore to explore whether p21^Cip1/WAF1 may bind Procaspase 3 and developed to this end a FRET approach which detected a signal of energy transfer compatible with such physical interaction. […] We then confirmed the binding between p21^Cip1/WAF1 and Caspase 3 in XG21 cells and in PBs by IP (data not shown). Finally, to confirm the anti-apoptotic role of cytoplasmic p21^Cip1/WAF1 in PBs we inhibited p21^Cip1/WAF1 expression by a siRNA targeting CDKN1A in in vitro D4 B cells (data not shown) and found an activation of the execution of apoptosis characterized by the detection of the p17-fragment cleavage of caspase 3 in parallel to the cleavage of PARP (data not shown) and similar results were found in XG21 cells (data not shown). […] The role of PIM2 is to stabilize p21^Cip1/WAF1 protein in the cytoplasm allowing therefore the formation a multiprotein complex which inhibits Caspase 3 full activation (data not shown).

Substance: 5′-CCTCATGACGGATACCTGGAGTC-3′ (all phosphorodiamidate morpholino (PMO)) [SSO-PIM2]
- effect on PIM1 expression (PIM1): without affecting PIM1 expression
- PIM2 knockdown (PIM2; 2 μM): near-knockout condition for PIM2
- duration of PIM2 near-knockout (PIM2; 2 μM): up to 96 h
- inhibition of PIM2 expression (PIM2; D6 collected PBs, increasing dose added at D4, 48 hours): dose-dependent inhibition of PIM2 expression
- cleaved PARP protein (PBs): production of cleaved PARP protein
- mitochondrial depolarization (PBs): strong mitochondrial depolarization
- pBAD and XIAP protein (PBs): decrease of pBAD and XIAP
